Laboratory results as given in US11478440B2, “Combination of Elafibranor or derivatives thereof with an anti-NASH, anti-fibrotic or anti-cholestatic agent” (GENFIT, priority 2017, dated 2022).

What was measured:
[1] = up to 2-year carcinogenicity studies; cited from earlier work
[2] = tested on: mice with NASH (CDFF-fed mice); assay: Mouse fibrosing-NASH model (CDFF diet, 8 weeks); assay type: in vivo, C57Bl/6J mice; details: elafibranor 3 mg/kg/day
Experimental: The preventive effects of the combinations of elafibranor with selonsertib, GKT-831 or GS-0976 were assessed in mice fed a choline-deficient, […] diet (CDAA) supplemented with 2% cholesterol, 30% milk fat diet and high fructose corn syrup 55 (55% fructose/45% glucose for a final concentration of 42 g/L) in drinking water (Mells et al J Nutr Biochem 2015) (CDFF diet). 5-6 weeks old male C57Bl/6J mice were fed a control (CSAA) diet (n=4), CDFF (n=12), or CDFF supplemented with elafibranor (1 or 3 mg/kg/day), selonsertib (30 mg/kg/day), GKT-831 ([…]) alone or in combination (n=8 per group) for 8 weeks.
The body weight, the food and water intake were monitored twice per week. On the last day of treatment, plasma samples were obtained from retro-orbital blood sampling and mice were sacrificed after a 6 h-fasting period. The liver was rapidly excised for biochemical and histological analyses. All animal procedures were performed according to standard protocols and in accordance with the standard recommendations for the proper care and use of laboratory animals.
The liver slices were fixed in a formalin 4% solution. Then, the liver pieces were washed 30 minutes in PBS, and dehydrated in ethanol solutions (successive baths at 70, 80, 95 and 100% ethanol). The liver pieces were incubated in three different baths of Xylene (Honeywell cat #534056), followed by two baths in liquid paraffin (59° C.). Liver pieces were then put into racks that were gently filled with HISTOWAX to completely cover the tissue.
Liver sections were deparaffinized, rehydrated and incubated for 3 minutes in Mayer's Hematoxylin (Microm, cat #F/C0303). Then, the liver sections were rinsed in water and incubated 1 minute in a Eosin Y 0.5% alcoholic (VWR, cat #1.02439.0500) and Erythrosin 0.5% solution (VWR, cat #1.15936.0010), and rinsed in with ethanol. Sections were then incubated for 2 minutes in Safranin, and were eventually dehydrated and mounted using the CV Mount medium (Leica, cat #046430011).
Liver sections were deparaffinized, rehydrated and incubated for 15 minutes in a solution of Fast Green FCF 0.1% (Sigma-Aldrich, cat #F7258) before rinsing in a bath of 0.5% acetic acid (Panreac, cat #131008.1611). Then, the liver sections were rinsed in water and incubated 30 minutes in a solution of 0.1% sirius red (Direct Red 80, Fluka cat #43665) in saturated aqueous picric acid (Sigma-Aldrich cat #P6744). Sections were then dehydrated, and mounted using the CV Mount medium (Leica, cat #14046430011).
A technician blinded to the source of each liver specimen performed histological examinations. Virtual slides were generated using the Pannoramic 250 scanner from 3D Histech. For each animal, a score summarizing the main histological lesions of NASH was attributed according to the NASH Clinical Research Network (Kleiner 2005, Brunt 1999). Briefly, steatosis, lobular inflammation and hepatocyte ballooning were scored. The NAFLD Activity Score (NAS) was established for each individual as the unweighted sum of the steatosis (0-3), lobular inflammation (0-3) and the ballooning (0-2) injury grading.
Using Quant Center software (3D Histech, including Pattern Quant and Histo Quant modules), collagen-stained areas were quantified. Briefly, Pattern Quant was used to detect the tissue and measure its surface. Then, Histo Quant was used to detect the stained collagen content and measure its surface, based on a color threshold method. The fibrosis area was then expressed as the percentage of the collagen surface to the whole tissue per animal.
The hepatic collagen content was determined using the appropriate QuickZyme kit (Total collagen assay, cat #QZB-totcol2). The assay is based on the detection of hydroxyproline, which is a non-proteinogenic amino acid mainly found in the triple helix of collagen. […]

[3] = tested on: fibrosing NASH-model of rats fed a CDAA+1% cholesterol diet; assay: Chronic CDAA+1% cholesterol rat model: hepatic gene expression (qPCR); assay type: in vivo, Wistar rats; details: liver; GFT505 3 mg/kg/d, OCA 10 mg/kg/d, alone or combined; 12 weeks
Experimental: The preventive effects of Elafibranor alone, OCA alone and the combination of both were assessed in a fibrosing NASH-model of rats fed a CDAA+1% cholesterol diet. 150-175 g male Wistar rats were fed a control (CSAA) diet, CDAA+1% cholesterol diet, or CDAA+1% cholesterol diet supplemented with Elafibranor 1, 3 and 10 mg/kg/day, OCA 10 and 30 mg/kg/day or combined drugs (Elafibranor 1, 3 and 10 mg/kg/day combined to OCA 10 mg/kg/day) for 12 weeks.
The body weight and the food intake were monitored twice per week. On the last day of treatment, rats were sacrificed after a 6 h fasting period. The liver was rapidly excised for biochemical and histological studies.
Total RNA was isolated from rat livers using RNeasy Mini Kit (Qiagen) following manufacturer's instructions. Total RNA were reverse transcribed into cDNA using M-MLV RT (Moloney Murine Leukemia Virus Reverse Transcriptase) (Invitrogen cat #28025) in 1×RT buffer (Invitrogen), 0.5 mM DTT (Invitrogen), 0.18 mM dNTPs (Promega), 200 ng pdN6 (Amersham) and 30 U of RNase inhibitor (Promega).
Quantitative PCR was then carried out using the CFX96 TOUCH Real-Time PCR Detection System (Biorad). Briefly, the PCR reactions were performed in 96-WP format in 25 μl of total volume containing 1 μL of reverse transcription reaction, 0.5 μL of reverse and forward primers (10 pmol each), and 12.5 μl of 2×iQ SYBR Green Supermix (BioRad), using the following primer sequences:
Expression levels were normalized using the expression of RPLP0 gene as a housekeeping gene of reference in samples. For each gene, the standard curves were drawn by selecting the best points (at least three points) in order to have PCR reaction efficiency close to 100% and a correlation coefficient close to 1. Expression levels were determined using the standard curve equation for both the housekeeping gene and the target gene (taking into account the specific PCR efficiency of each target gene).

1-[4-methylthiophenyl]-3-[3,5-dimethyl-4-carboxydimethylmethyloxyphenyl]prop-2-en-1-one [Elafibranor]
safety concern [1]: absence of safety concern | NASH histology (steatosis, hepatic lobular inflammation, NAFLD activity score) [2]: improves NASH histology | hepatic expression of genes related to inflammation, tissue remodeling and fibrogenesis ([2]; alone or with selonsertib 30 mg/kg/day): decreases | hepatic fibrosis (histology, hepatic collagen content, PIIINP and TIMP-1) ([2]; selonsertib 30 mg/kg/day, alone or combined): marked reduction of hepatic fibrosis | CCR5 mRNA level (marker of inflammation), percentage over the untreated CDAA + 1% cholesterol rats [3]: 103% ± 51% | TGFβ1 mRNA level, percentage over the untreated CDAA + 1% cholesterol rats [3]: 94% ± 20% | TIMP1 mRNA level, percentage over the untreated CDAA + 1% cholesterol rats [3]: 78% ± 23% | αSMA mRNA level, percentage over the untreated CDAA + 1% cholesterol rats [3]: 66% ± 27%
